Laboratory results as given in patent US4328215A, “Method of reducing or avoiding the mutagenic activity of drugs” (The Johns Hopkins University, priority 1977, dated 1982).
Where “and” joins values, the source holds several entries; their conditions need not be identical. Identical values can stand only once.

Key:
[1] = test system: Salmonella typhimurium Strain TA 100; assay: Urine analysis (Ames test) of mice treated with CGP 4540, strain TA 100, with/without S9;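 further: mouse urine gathered in 24 h periods after drug dosing, 0.1 and 0.25 ml aliquots plated on the bacteria, plates counted following 48 h at 37 °C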
Procedure: Mice are placed into a metabolism cage and control urines are collected on ice for 24 hours. These animals are then treated with the drug and urine is collected in refrigerated containers for the two subsequent 24-hour periods. The volume of the urine is measured and the urine is stored at -80° C. until assayed.
Urine specimens are thawed, centrifuged at 10,000×g for 15 minutes and sterilized by filtration through a 0.22 μm Millipore filter. Effects of 0.1 and 0.25 ml aliquots are tested on strains TA 100 with and without added S9 microsomal fraction. Plates are counted after incubation at 37° C. for 48 hours. The dose response at these two urine concentrations is used to calculate the number of revertants induced by the total volume of urine excreted in 24 hours. […] Aliquots of this mixture are tested after adjustment to pH 7 in the absence and the presence of the S9 fraction.
The mice were infected with S. typhimurium TA 100 as the test strain and the CGP 4540 was formulated as in Example 1. […] Three control mice were employed.

bile ducts and the liver = assay: Acute hepatotoxic effects; format: in vivo
Excerpt: A further advantage of the invention is that, at least in some instances, acute hepatotoxic effects resulting from use of an antischistosomal or other drug and caused by a metabolic product, may be prevented. […] Accordingly, in this particular situation the administration of the antibacterial agent not only prevents the mutagenic effects of a metabolic product of the intestinal bacterial flora but also the acute hepatotoxic effects which might otherwise be encountered.

Schistosoma mansoni [2] = assay: Antischistosomal activity in infected mice; format: in vivo
Procedure: Six groups of test mice, infected with Schistosoma mansoni, were treated as follows:
(1) a single dose of formulated CGP 4540 (10 mg/kg) with no antibiotic administered;
(2) single dose of formulated CGP 4540 as in (1) but preceded by 100 mg/kg of erythromycin (base);
(4) same as (1) but using a CGP 4540 dosage of 15 mg/kg;
(5) same as (4) but preceded by a 100 mg/kg dose of erythromycin; and
All drugs were administered by gastric intubation.

[3] = Thin layer chromatography of urine extracts for mutagenic metabolite; format: in vivo, rats
Schistosoma mansoni [4] = assay: Antischistosomal activity in infected mice; format: in vivo; remark: listed apart in the source
Salmonella typhimurium = assay: Mutagenic activity of urines of treated germ-free and conventional rats (Ames); format: in vivo; conditions: for Revertants in excess of controls excreted in 24 hrs: 250 mg/kg oral
Procedure: Urine analysis (referred to above as the "Ames" test).
The schistosomicide 4-nitro-4'-[…] diphenylamine (CGP 4540) was orally administered to two germ-free rats and two conventional male Fisher rats weighing 220-240 grams. Urines from the thus treated animals were analyzed for mutagenic activity and assays were carried out as described in Journal of Pharmacology and Experimental Therapeutics, 200, 1-9 (1977) using the methodology of Ames et al (Mutat. Res., 31, 347-364). The mutagenic activities of the urines were determined in both the absence and presence of S9 (hepatic microsomal) fractions of phenobarbital pretreated rats (Ames et al, Proc. Nat. Acad. Sci, U.S.A., 71, 737-741, 1974) without and with preincubation with β-glucuronidase.
For test purposes, the isothiocyanate derivative was dissolved at 40° C. in a polyethoxylated vegetable oil (Emulphor El 620) to a final concentration of 50 mg/ml. Following sterilization by means of millipore filtration the mixture was administered by gastric intubation to two germ-free and two conventional male Fisher rats (weighing 220 to 240 gms) at a dose of 250 mg/kg of the isothiocyanate. One germ-free and one conventional rat that were given the filtered vehicle without the drug served as controls. The urines of each animal were collected for a period of 48 hours subsequent to administration of the drug or the filtered vehicle.
The germ-free rats used in the tests were kept in Tresder type plastic isolators. After administration of the isothiocyanate or the vehicle the germ-free rats were transferred into individual metabolism cages in the isolators.
The mutagenic activity determined for the test animals, expressed in terms of revertants in excess of the controls, is shown below: […]

[5] = Conversion of CGP 4540 to mutagenic metabolite by route; format: in vivo; conditions: oral vs injected intramuscularly or intravenously
[6] = succinylsulfathiazole 1 g/kg once daily for 3 days before CGP 4540
[7] = CGP 4540 10 mg/kg single dose, no antibiotic, 196 mice, 10 mg/kg
[8] = CGP 4540 10 mg/kg, erythromycin (base) 100 mg/kg
[9] = CGP 4540 10 mg/kg, erythromycylamine 100 mg/kg
[10] = CGP 4540 15 mg/kg, erythromycylamine 100 mg/kg
[11] = CGP 4540 10 mg/kg, bacitracin 440 mg/kg
[12] = CGP 4540 10 mg/kg, succinylsulfathiazole 1 g/kg + bacitracin 220 mg/kg
[13] = CGP 4540 15 mg/kg, erythromycin (base) 100 mg/kg
[14] = CGP 4540 15 mg/kg, no antibiotic
[15] = CGP 4540 20 mg/kg, bacitracin 440 mg/kg
[16] = CGP 4540 20 mg/kg, no antibacterial
[17] = CGP 4540 20 mg/kg, succinylsulfathiazole 1 g/kg + bacitracin 220 mg/kg

O=[N+]([O-])c1ccc(Nc2ccc(N=C=S)cc2)cc1 [CGP 4540]
Urine revertants in excess of controls ([1]; CGP 4540 100 mg/kg oral, no pretreatment, day 1, +S9): 239 revertants per total 24 hour u | Urine revertants in excess of controls ([1]; CGP 4540 100 mg/kg oral, no pretreatment, day 1, no S9): 56 revertants per total 24 hour u | Urine revertants in excess of controls ([1]; CGP 4540 100 mg/kg oral, no pretreatment, day 2, +S9): 30 revertants per total 24 hour u | Urine revertants in excess of controls ([1]; CGP 4540 100 mg/kg oral, no pretreatment, day 2, no S9): 11 revertants per total 24 hour u | Urine revertants in excess of controls ([1]; CGP 4540 100 mg/kg oral, succinylsulfathiazole 1 g/kg, day 1, +S9): 108 revertants per total 24 hour u | Urine revertants in excess of controls ([1]; CGP 4540 100 mg/kg oral, succinylsulfathiazole 1 g/kg, day 1, no S9): 37 revertants per total 24 hour u | Urine revertants in excess of controls ([1]; CGP 4540 100 mg/kg oral, succinylsulfathiazole 1 g/kg, day 2, +S9): 12 revertants per total 24 hour u | Urine revertants in excess of controls ([1]; CGP 4540 100 mg/kg oral, succinylsulfathiazole 1 g/kg, day 2, no S9): 0 revertants per total 24 hour u | Urine revertants in excess of controls ([1]; CGP 4540 250 mg/kg oral, bacitracin 220 mg/kg, day 1, +S9): 96 revertants per total 24 hour u | Urine revertants in excess of controls ([1]; CGP 4540 250 mg/kg oral, bacitracin 220 mg/kg, day 1, no S9): 31 revertants per total 24 hour u | Urine revertants in excess of controls ([1]; CGP 4540 250 mg/kg oral, bacitracin 220 mg/kg, day 2, +S9): 10 revertants per total 24 hour u | Urine revertants in excess of controls ([1]; CGP 4540 250 mg/kg oral, bacitracin 220 mg/kg, day 2, no S9): 4 revertants per total 24 hour u | Urine revertants in excess of controls ([1]; CGP 4540 250 mg/kg oral, bacitracin 440 mg/kg, day 1, +S9): 0 revertants per total 24 hour u | Urine revertants in excess of controls ([1]; CGP 4540 250 mg/kg oral, bacitracin 440 mg/kg, day 1, no S9): 0 revertants per total 24 hour u | Urine revertants in excess of controls ([1]; CGP 4540 250 mg/kg oral, bacitracin 440 mg/kg, day 2, +S9): 0 revertants per total 24 hour u | Urine revertants in excess of controls ([1]; CGP 4540 250 mg/kg oral, bacitracin 440 mg/kg, day 2, no S9): 0 revertants per total 24 hour u | Urine revertants in excess of controls ([1]; CGP 4540 250 mg/kg oral, erythromycin base 100 mg/kg, day 1, +S9): 0 revertants per total 24 hour u | Urine revertants in excess of controls ([1]; CGP 4540 250 mg/kg oral, erythromycin base 100 mg/kg, day 1, no S9): 0 revertants per total 24 hour u | Urine revertants in excess of controls ([1]; CGP 4540 250 mg/kg oral, erythromycin base 100 mg/kg, day 2, +S9): 0 revertants per total 24 hour u | Urine revertants in excess of controls ([1]; CGP 4540 250 mg/kg oral, erythromycin base 100 mg/kg, day 2, no S9): 0 revertants per total 24 hour u | Urine revertants in excess of controls ([1]; CGP 4540 250 mg/kg oral, no pretreatment, day 1, +S9): 541 revertants per total 24 hour u | Urine revertants in excess of controls ([1]; CGP 4540 250 mg/kg oral, no pretreatment, day 1, no S9): 120 revertants per total 24 hour u | Urine revertants in excess of controls ([1]; CGP 4540 250 mg/kg oral, no pretreatment, day 2, +S9): 89 revertants per total 24 hour u | Urine revertants in excess of controls ([1]; CGP 4540 250 mg/kg oral, no pretreatment, day 2, no S9): 32 revertants per total 24 hour u | Urine revertants in excess of controls ([1]; CGP 4540 250 mg/kg oral, succinylsulfathiazole 1 g/kg + bacitracin 220 mg/kg, day 1, +S9): 0 revertants per total 24 hour u | Urine revertants in excess of controls ([1]; CGP 4540 250 mg/kg oral, succinylsulfathiazole 1 g/kg + bacitracin 220 mg/kg, day 1, no S9): 0 revertants per total 24 hour u | Urine revertants in excess of controls ([1]; CGP 4540 250 mg/kg oral, succinylsulfathiazole 1 g/kg + bacitracin 220 mg/kg, day 2, +S9): 0 revertants per total 24 hour u | Urine revertants in excess of controls ([1]; CGP 4540 250 mg/kg oral, succinylsulfathiazole 1 g/kg + bacitracin 220 mg/kg, day 2, no S9): 0 revertants per total 24 hour u | Urine revertants in excess of controls ([1]; CGP 4540 250 mg/kg oral, succinylsulfathiazole 1 g/kg, day 1, +S9): 269 revertants per total 24 hour u | Urine revertants in excess of controls ([1]; CGP 4540 250 mg/kg oral, succinylsulfathiazole 1 g/kg, day 1, no S9): 73 revertants per total 24 hour u | Urine revertants in excess of controls ([1]; CGP 4540 250 mg/kg oral, succinylsulfathiazole 1 g/kg, day 2, +S9): 30 revertants per total 24 hour u | Urine revertants in excess of controls ([1]; CGP 4540 250 mg/kg oral, succinylsulfathiazole 1 g/kg, day 2, no S9): 7 revertants per total 24 hour u | Mutagenic urinary metabolite [1, 6]: very marked decrease | Lesions in bile ducts and liver (bile ducts and the liver; 500 mg/kg (50 times the curative dose)): some destructive lesions may be produced in the bile ducts and the liver | Lesions in bile ducts and liver with antibacterial agent (bile ducts and the liver; 500 mg/kg, co-administration of erythromycin): these lesions are prevented | Mice with parasitological cures (Schistosoma mansoni [2]; [7]): 95% | Mice with parasitological cures (Schistosoma mansoni [2]; [8]): 100% | Reduction in number of worms (Schistosoma mansoni [2]; [8]): 100% | Reduction in number of worms (Schistosoma mansoni [2]; [9]): 100% | Reduction in number of worms (Schistosoma mansoni [2]; [10]): 100% | Schistosomicidal activity of single low doses with or without antibacterial agents (Schistosoma mansoni [2]; single low doses, with vs without antibacterial agents): nearly or equally as effective | Spot with Rf similar to isolated mutagenic metabolite in urine extract ([3]; conventional rats, 250 mg/kg oral, urine 0 to 24 hours): recognizable | Spot with Rf similar to isolated mutagenic metabolite in urine extract ([3]; germ-free rats): No such spot appeared | Mutagenic activity in the host mediated assay (S. typhimurium TA 100; in vivo, po): no mutagenic activity was detectable | Mutant colonies found in the host-mediated assay (S. typhimurium TA 100; [6]): very marked decrease | Reduction in number of worms (Schistosoma mansoni [4]; CGP 4540 10 mg/kg single dose, no antibiotic, 196 mice): 99% | Mice with parasitological cures (Schistosoma mansoni [4]; [7]): 96% | Mice with parasitological cures (Schistosoma mansoni [4]; [11]): 88% | Reduction in no. of worms (Schistosoma mansoni [4]; [11]): 98% | Mice with parasitological cures (Schistosoma mansoni [4]; [9]): 100% | Mice with parasitological cures (Schistosoma mansoni [4]; [12]): 92% | Reduction in no. of worms (Schistosoma mansoni [4]; [12]): 99% | Mice with parasitological cures (Schistosoma mansoni [4]; [13]): 100% | Reduction in number of worms (Schistosoma mansoni [4]; [13]): 100% | Mice with parasitological cures (Schistosoma mansoni [4]; [10]): 100% | Mice with parasitological cures (Schistosoma mansoni [4]; [14]): 100% | Reduction in number of worms (Schistosoma mansoni [4]; [14]): 100% | Mice with parasitological cures (Schistosoma mansoni [4]; [15]): 100% | Reduction in no. of worms (Schistosoma mansoni [4]; [15]): 100% | Mice with parasitological cures (Schistosoma mansoni [4]; [16]): 100% | Reduction in no. of worms (Schistosoma mansoni [4]; [16]): 100% | Mice with parasitological cures (Schistosoma mansoni [4]; [17]): 100% | Reduction in no. of worms (Schistosoma mansoni [4]; [17]): 100% | Curative antischistosomal activity after preceding antibiotic treatment (Schistosoma mansoni [4]; erythromycin base or erythromycylamine): not reduced | Effectiveness against schistosomiasis, oral vs intramuscular (Schistosoma mansoni [4]; formulated CGP 4540, oral and intramuscular): about equally effective | Antischistosomal activity after reduction of bacterial flora (Schistosoma mansoni [4]; succinylsulfathiazole 1 g/kg once daily for 3 days, oral): do not appear to affect the antischistosomal activity | Mutagenic activity after incubation of urines with β-glucuronidase (Salmonella typhimurium; 3 hrs at 37° C., conventional rats): No further increase in mutagenic activity | Revertants in excess of controls excreted in 24 hrs (Salmonella typhimurium; conventional rats, urine 0-24 hrs, +S9, 250 mg/kg): 4,900 revertants excreted in 24 hrs and 5,000 revertants excreted in 24 hrs | Revertants in excess of controls excreted in 24 hrs (Salmonella typhimurium; conventional rats, urine 0-24 hrs, -S9, 250 mg/kg): 3,800 revertants excreted in 24 hrs and 3,750 revertants excreted in 24 hrs | Revertants in excess of controls excreted in 24 hrs (Salmonella typhimurium; conventional rats, urine 24-48 hrs, +S9, 250 mg/kg): 2,800 revertants excreted in 24 hrs and 3,050 revertants excreted in 24 hrs | Revertants in excess of controls excreted in 24 hrs (Salmonella typhimurium; conventional rats, urine 24-48 hrs, -S9, 250 mg/kg): 1,600 revertants excreted in 24 hrs and 1,200 revertants excreted in 24 hrs | Revertants in excess of controls excreted in 24 hrs (Salmonella typhimurium; germ-free rats, urine 0-24 hrs, +S9): 0 revertants excreted in 24 hrs | Revertants in excess of controls excreted in 24 hrs (Salmonella typhimurium; germ-free rats, urine 0-24 hrs, -S9): 0 revertants excreted in 24 hrs | Revertants in excess of controls excreted in 24 hrs (Salmonella typhimurium; germ-free rats, urine 24-48 hrs, +S9): 0 revertants excreted in 24 hrs | Revertants in excess of controls excreted in 24 hrs (Salmonella typhimurium; germ-free rats, urine 24-48 hrs, -S9): 0 revertants excreted in 24 hrs | Urinary mutagenic metabolite in germ-free rats (Salmonella typhimurium; urines of germ-free rats (1) and (2)): no mutagenic metabolite was detectable | Increase in conversion to mutagenic metabolite, oral vs intramuscular or intravenous [5]: 50%
